PMC8802628, “Selective activation of PFKL suppresses the phagocytic oxidative burst” (Cell, 2021)

How the values were obtained:
Type in all cases: biochemical
human PFKP = target: T1, human PFKP (Homo sapiens, UniProt Q01813); assay: Recombinant PFKP activity assay; conditions: at concentrations up to 100 μM
T1 construct: made in house; host or cells: Sf9 insect cells (baculovirus)
From the text: (§1) Recombinant N-terminal His-tagged human PFKL (NP_002617), PFKM (NP_000280), and PFKP (NM_002627.4) were generated as described ([Webb et al., 2015], [2017]). Point mutants of PFK1 were generated using the QuikChange Lightning kit (Aligent).
His-tagged PFK1 was expressed and purified as described with slight modifications ([Webb et al., 2015], [2017]). Briefly, baculovirus was generated using the Bac-to-Bac Expression system (Invitrogen). PFK1 was expressed in 2-5 × 10^6 sf9 cells at a multiplicity of infection of two for 48 h. […] Protein was quantified using a Bradford Protein Assay kit (ThermoFisher Scientific), and aliquotes frozen in liquid nitrogen for storage at −80°C.
PFK1 activity was determined using the rate of FBP production via an auxiliary enzyme assay adapted to a 96-well format ([Brüser et al., 2012]; [Webb et al., 2015]). […] For assays containing FBP, the rate of ADP production was determined using the auxiliary enzymes pyruvate kinase (PK) and lactate dehydrogenase (LDH) (MilliporeSigma) in a buffer containing 250 μM phosphoenolpyruvic acid, […] NADH, 50 mM HEPES pH 7.5, 100 mM KCl, 1 mM DTT, and effector concentrations as described in the text. […] Absorbance at 340 nm was measured using a Varioskan LUX Multimode microplate reader (ThermoFisher). […]

recombinant NE = target: T2, recombinant NE (Homo sapiens, UniProt P08246); assay: NE activity assay
T2 construct: purchased Abcam ab91099
Method: NA-11 and LDC7559 were incubated at the indicated concentrations with 25 ng of recombinant NE for 20 min. NE activity was measured using a fluorescence NE activity assay kit (Abcam).

[1] = target: T3, PFKM+pocket (R315 to lysine) (Homo sapiens, UniProt P08237, R315K); assay: Recombinant PFKM+pocket activity assay
T3 construct: made in house; host or cells: Sf9 insect cells (baculovirus)
T3 sequence (P08237 1-780 R315K): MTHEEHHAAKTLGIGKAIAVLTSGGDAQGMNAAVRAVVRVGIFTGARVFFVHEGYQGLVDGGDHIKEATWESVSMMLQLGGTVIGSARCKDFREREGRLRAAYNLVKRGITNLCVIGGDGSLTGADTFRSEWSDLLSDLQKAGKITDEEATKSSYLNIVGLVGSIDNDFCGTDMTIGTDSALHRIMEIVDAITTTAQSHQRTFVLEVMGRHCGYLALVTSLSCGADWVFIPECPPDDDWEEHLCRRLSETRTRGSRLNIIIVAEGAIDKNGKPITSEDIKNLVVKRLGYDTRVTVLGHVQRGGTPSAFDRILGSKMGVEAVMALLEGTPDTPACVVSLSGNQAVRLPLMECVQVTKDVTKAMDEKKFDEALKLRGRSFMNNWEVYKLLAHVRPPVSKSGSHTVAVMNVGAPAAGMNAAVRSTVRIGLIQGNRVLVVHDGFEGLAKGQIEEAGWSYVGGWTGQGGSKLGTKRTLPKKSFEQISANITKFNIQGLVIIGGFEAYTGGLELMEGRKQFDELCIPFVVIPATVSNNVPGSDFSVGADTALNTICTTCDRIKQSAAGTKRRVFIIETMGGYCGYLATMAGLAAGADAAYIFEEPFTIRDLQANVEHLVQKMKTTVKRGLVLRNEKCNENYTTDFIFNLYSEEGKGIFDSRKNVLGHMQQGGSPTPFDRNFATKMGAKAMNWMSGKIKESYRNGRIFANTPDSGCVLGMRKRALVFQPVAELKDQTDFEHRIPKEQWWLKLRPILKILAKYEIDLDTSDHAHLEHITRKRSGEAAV
From the text: as §1
His-tagged PFK1 was expressed and purified as described with slight modifications ([Webb et al., 2015], [2017]). Briefly, baculovirus was generated using the Bac-to-Bac Expression system (Invitrogen). PFK1 was expressed in 2-5 × 10^6 sf9 cells at a multiplicity of infection of two for 48 h. Cells were lysed in 20 mM HEPES, pH 7.5, 80 mM potassium phosphate, 1 mM 2-mercapentoethanol, 10% glycerol, 10 mM imidazole, and EDTA-free Protease Inhibitor Cocktail (Abcam) with a Dounce homogenizer. The soluble lysate was incubated with HisPur cobalt resin (ThermoFisher Scientific). The resin was washed with 5 bead volumes lysis buffer, 10 bead volumes lysis buffer containing 2 M NaCl, and 5 further bead volumes lysis buffer. PFK1 was eluted in lysis buffer containing 100 mM imidazole. Fractions containing protein were pooled, passed over a desalting column equilibrated in freezing buffer [20 mM HEPES pH 7.5, 1 mM DTT, 500 μM ammonium sulfate, 5% glycerol, 1 mM ATP, and 100 μM EDTA] and concentrated using an Amicon Ultracel-30K Centrifugal Filter Unit (MilliporeSigma). Protein was quantified using a Bradford Protein Assay kit (ThermoFisher Scientific), and aliquotes frozen in liquid nitrogen for storage at −80°C.
PFK1 activity was determined using the rate of FBP production via an auxiliary enzyme assay adapted to a 96-well format ([Brüser et al., 2012]; [Webb et al., 2015]). The auxiliary enzymes aldolase, triosephosphate isomerase, and glycerol phosphate dehydrogenase were purchased from MilliporeSigma as ammonium sulfate slurries and desalted using an Amicon Ultracel-10K Centrifugal Filter Unit. For assays containing FBP, the rate of ADP production was determined using the auxiliary enzymes pyruvate kinase (PK) and lactate dehydrogenase (LDH) (MilliporeSigma) in a buffer containing 250 μM phosphoenolpyruvic acid, […] NADH, 50 mM HEPES pH 7.5, 100 mM KCl, 1 mM DTT, and effector concentrations as described in the text. The temperature was equilibrated to 25°C for 5 min before initiating the reaction 10 mM MgCl2. Absorbance at 340 nm was measured using a Varioskan LUX Multimode microplate reader (ThermoFisher). Kinetic parameters were generated by nonlinear regression analysis using Prism (GraphPad Software) and are the mean of a minimum of three measurements from two independent preparations of protein. One unit of activity was defined as the amount of enzyme that catalyzed the formation of 1 μmol of fructose 1,6-bisphosphate per min at 25°C. […]

[2] = PFKM+pocket, pH 7.0, 250 μM ATP

T2 sequence (P08246 30-267): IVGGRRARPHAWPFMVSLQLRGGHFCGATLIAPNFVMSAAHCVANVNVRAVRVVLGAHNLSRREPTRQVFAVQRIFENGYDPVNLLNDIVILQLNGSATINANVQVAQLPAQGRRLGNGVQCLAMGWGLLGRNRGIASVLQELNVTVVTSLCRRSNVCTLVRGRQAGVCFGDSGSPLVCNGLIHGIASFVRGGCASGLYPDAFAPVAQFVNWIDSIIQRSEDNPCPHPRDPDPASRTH
T1 sequence (Q01813 whole entry): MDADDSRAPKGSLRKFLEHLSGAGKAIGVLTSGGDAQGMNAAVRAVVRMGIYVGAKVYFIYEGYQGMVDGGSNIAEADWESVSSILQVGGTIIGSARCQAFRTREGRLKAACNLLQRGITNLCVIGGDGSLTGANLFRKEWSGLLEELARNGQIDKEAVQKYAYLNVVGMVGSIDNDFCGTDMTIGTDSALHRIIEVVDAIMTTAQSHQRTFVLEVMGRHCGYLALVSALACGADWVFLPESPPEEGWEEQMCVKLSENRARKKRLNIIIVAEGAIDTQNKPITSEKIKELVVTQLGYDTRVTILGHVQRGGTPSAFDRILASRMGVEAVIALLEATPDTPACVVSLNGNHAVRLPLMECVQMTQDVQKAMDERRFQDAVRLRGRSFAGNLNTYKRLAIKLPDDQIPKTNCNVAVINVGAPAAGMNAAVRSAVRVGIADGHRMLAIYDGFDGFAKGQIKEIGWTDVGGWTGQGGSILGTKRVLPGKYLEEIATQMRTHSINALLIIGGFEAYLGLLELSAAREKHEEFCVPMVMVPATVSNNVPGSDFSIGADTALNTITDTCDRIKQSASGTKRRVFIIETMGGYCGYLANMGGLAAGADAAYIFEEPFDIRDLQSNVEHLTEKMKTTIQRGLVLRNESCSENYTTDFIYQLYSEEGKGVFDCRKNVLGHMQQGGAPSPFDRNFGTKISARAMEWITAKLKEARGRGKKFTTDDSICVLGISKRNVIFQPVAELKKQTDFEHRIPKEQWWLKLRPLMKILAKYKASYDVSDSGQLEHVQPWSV

Row | EC50 ([1]; pH 7.0, 4.0 mM ATP, 1.0 mM F6P, mean ± SEM, read-out: EC50, activation of PFKM+pocket) [nM] | hF6P (Hill coefficient) [1, 2] | SMILES | activation of PFKP (human PFKP) | inhibition of recombinant NE (recombinant NE) | Vmax,F6P [1, 2]
1 |  |  | CC(=O)Nc1ccc2c(c1)OCc1cc(-c3ccccc3C#CCCCO)nn1C2 [NA-11] | failed to activate | neither LDC7559 nor NA-11 inhibited recombinant NE | 
2 | 10.9 ± 1.28 |  | CC(=O)Nc1ccc2c(c1)OCc1cc(-c3ccccc3)nn1C2 [NA-5] |  |  | 
3 |  | 3.64 ± 0.69 | O=C(CO)[C@@H](O)[C@H](O)[C@H](O)COP(=O)(O)O [F6P, fructose 6-phosphate] |  |  | 17.29 ± 0.93 micromoles FBP per minute per milligram PFK1
4 |  |  | COc1ccccc1-c1cc2n(n1)Cc1ccc(NC(C)=O)cc1OC2 [LDC7559, reference compound] | failed to activate | neither LDC7559 nor NA-11 inhibited recombinant NE | 
